Laboratory results reported in patent EP0642504B1 (priority 1991, dated 1993).
Marks after values point to notes of the source that are not given here.

Experiments:
mouse = assay: Mouse hot plate test (55°C) for antinociception; type: in vivo
Experimental: In the hot plate test for analgesia an aluminum surface was maintained at 55 ± 1°C by circulating water through passages in the metal. A clear plastic cylinder 18 cm in diameter and 26 cm high was placed on the surface to prevent escape. The end point was taken when the mouse either performed a hind paw lick or jumped off the surface; in no case were the animals kept for more than 30 secs on the plate. Mice were never used more than one time; control values were always measured at 11 a.m. and test values at 2 p.m. The drugs were administered orally 90 min before the hot plate test. The percent change in response time (latency) was calculated by comparing the mean of the control values with the mean of the test values and statistical signficance determined by a paired t-test analysis using software (Statview, 512) from Brainpower, Inc., Calabasas, Ca.

NMDA receptor = assay: NMDA-blocking response in Xenopus oocytes injected with rat brain RNA (two-electrode voltage clamp); type: cell-based
Excerpt: The oocyte is the most widely used system for studying the molecular, biophysical and pharmacological properties of expressed voltage- or transmitter-operated ion channels. This giant cell offers several advantages for this type of studies. It can be readily used for two-electrode voltage clamp studies, translates injected mRNA from different sources and functionally expresses the translated proteins, and it is also readily amenable for intracellular microinjections. Importantly, the recordings of transmitter- or voltage-incuded currents in a single oocyte are extremely stable and can be done, without rundown, for 2-3 hours; this allows the performance of a full dose-response relation in single oocytes.
Neuronal receptors for excitatory amino acid (EAA) are becoming increasingly important for the understanding of normal and pathological brain function. Quantitative pharmacological studies of EAA receptor/ion channel complex are difficult to study in neurons. Therefore, Xenopus oocyte injected with brain mRNA is now the preparation of choice.
The response to N-methyl-D-aspartate (NMDA) in oocytes injected with rat brain mRNA was characterized and the effects of HU-245 were studied.
Female Xenopus were anesthetized by immersion in water containing 0.15% tricaine methanesulfonate and a small incision was made in the lower adbomen. Ovary fragments were removed into ND-96. […]

CCCCCCC(C)(C)c1cc(OC(C)=O)c2c(c1)OC(C)(C)[C@H]1CC=C(C(=O)O)C[C@H]21 [HU-245, (3S,4S)-THC-DMH-7-oic acid, acetate]
percent change in latency (mouse; dose 0.025 mg/kg orally 90 min before the hot plate test): 10.7(5) percent | percent change in latency (mouse; dose 0.050 mg/kg orally 90 min before the hot plate test): 66.2(5)* percent | percent change in latency (mouse; dose 0.10 mg/kg orally 90 min before the hot plate test): 62.2(5)* percent | percent change in latency (mouse; dose 0.25 mg/kg orally 90 min before the hot plate test): 68.1(10)* percent | percent change in latency (mouse; dose 0.50 mg/kg orally 90 min before the hot plate test): 49.9(5)* percent | percent change in latency (mouse; dose 1.0 mg/kg orally 90 min before the hot plate test): 12.5(5) percent | response to NMDA (NMDA receptor; 10-^6M compound, 10-^4 M NMDA and 5x10-^6 M glycine, membrane potential -60mV, 1 µM): 55 % of control | reversibility of the effect on the NMDA response (NMDA receptor; upon return to ND 96 solution): reversible
